The values that follow come from patent publication US10100076B2, “Modified nucleosides for the treatment of viral infections and abnormal cellular proliferation” (priority 2000, dated 2018).

Molecules are shown by their SMILES.

The test system of one series is HCV replicon. Put plainly: HCV replicon system in Huh7 cells, replicon RNA by Q-RT-PCR (HCV ΔCt, ΔΔCt). Format: cell-based, hepatitis C virus. The note with it: for Ave. ΔΔCt: HCV RNA ΔCt minus rRNA ΔCt; for Ave. HCV RNA ΔCt: HCV replicon in Huh7 cells; for average ΔΔCt: HCV RNA ΔCt minus rDNA ΔCt. A general note: A replicon is a self-replicating genome or part of one, used to study replication in cells.

A further series has as its system rDNA (host DNA). Put plainly: rDNA ΔCt in Huh7 replicon cells (effect on cellular DNA polymerases). The note with it: Table 25, average of N. The source says:
In another typical setting, a compound might reduce the host RNA polymerase activity, but not the host DNA polymerase activity. Therefore, quantification of rDNA or beta-actin DNA (or any other host DNA fragment) and comparison with DNA levels of the no-drug control is a relative measurement of the inhibitory effect of the test compound on cellular DNA polymerases.
With the availability of both the HCV ΔCt data and the rDNA ΔCt, a specificity parameter can be introduced. This parameter is obtained by subtracting both ΔCt values from each other.

Series [1] relates to rRNA (host RNA polymerase I product). Put plainly: rRNA ΔCt in Huh7 replicon cells (effect on host RNA polymerases). As to conditions: Table 24, average of n. The source says:
In a typical setting, a compound might reduce both the host RNA polymerase activity and the replicon-encoded polymerase activity. Therefore, quantification of rRNA (or any other host RNA polymerase I product) or beta-actin mRNA (or any other host RNA polymerase II) and comparison with RNA levels of the no-drug control is a relative measurement of the effect of the test compound on host RNA polymerases.
With the availability of both the HCV ΔCt data and the rRNA ΔCt, a specificity parameter can be introduced. This parameter is obtained by subtracting both ΔCt values from each other.
Further: test concentration or dose not given here.

For the compound `Nc1cn([C@@H]2O[C@H](CO)[C@@H](O)[C@H]2O)c(=O)nc1N` [β-D-BJ], the “Ave. ΔΔCt” value with HCV replicon (Table 24) is given as 1.44. The “Ave. HCV RNA ΔCt” value in the series with HCV replicon (Table 24, average of n) amounted to 5.06; with HCV replicon (Table 25, average of N), 4.34. Also, the “average ΔΔCt” value with HCV replicon (Table 25) is listed as 3.53. The “Ave. rDNA ΔCt” value in the series on rDNA (host DNA) turned out to be 0.81. In addition, the “Ave. rRNA ΔCt” value in series [1] came out at 3.62.
In the case of `N=c1nc(N)ccn1[C@@H]1O[C@H](CO)[C@@H](O)[C@@H]1O` [β-D-BL], the “Ave. ΔΔCt” value in the series with HCV replicon (Table 24) is given as 0.35. For the same compound, the “Ave. HCV RNA ΔCt” value in the series with HCV replicon (Table 24, average of n) turned out to be 2.28; in the series with HCV replicon (Table 25, average of N), 2.28. The “average ΔΔCt” value in the series with HCV replicon (Table 25) came out at 0.65. Further, the “Ave. rDNA ΔCt” value with rDNA (host DNA) stood at 1.62. Besides, in series [1], the “Ave. rRNA ΔCt” value is 1.93.
`CC(=O)Nc1ccn([C@@H]2O[C@H](CO)[C@@H](O)[C@@H]2O)c(=O)n1` [β-D-BO]: in the series on HCV replicon (Table 24), the “Ave. ΔΔCt” value is given as 1.57. Moreover, in the series with HCV replicon (Table 24, average of n), the “Ave. HCV RNA ΔCt” value is given as 4.52. Besides, the “Ave. rRNA ΔCt” value in series [1] is 2.95.
Turning to `O=c1nc(NO)c(F)cn1[C@@H]1O[C@H](CO)[C@@H](O)[C@H]1O` [β-D-BT], the “Ave. ΔΔCt” value in the series with HCV replicon (Table 24) is 1.24. Moreover, the “Ave. HCV RNA ΔCt” value is listed as 4.83 in the series on HCV replicon (Table 24, average of n) and 4.44 in the series with HCV replicon (Table 25, average of N). The “average ΔΔCt” value with HCV replicon (Table 25) is on record as 3.39. Moreover, the “Ave. rDNA ΔCt” value in the series with rDNA (host DNA) is on record as 1.17. Besides, in series [1], the “Ave. rRNA ΔCt” value is 3.59.
Take `O=c1nc(NO)c(Br)cn1[C@@H]1O[C@H](CO)[C@@H](O)[C@H]1O` [β-D-BU]: the “Ave. ΔΔCt” value in the series on HCV replicon (Table 24) was 1.06. For the same compound, the “Ave. HCV RNA ΔCt” value stood at 3.46 in the series with HCV replicon (Table 24, average of n) and 3.46 in the series on HCV replicon (Table 25, average of N). In addition, the “average ΔΔCt” value with HCV replicon (Table 25) came out at 1.16. Besides, the “Ave. rDNA ΔCt” value in the series with rDNA (host DNA) was found to be 1.10. Moreover, the “Ave. rRNA ΔCt” value in series [1] was determined as 2.18.
Take `O=c1nc(NO)c(I)cn1[C@@H]1O[C@H](CO)[C@@H](O)[C@H]1O` [β-D-BV]: in the series on HCV replicon (Table 24), the “Ave. ΔΔCt” value was 1.22. Further, the “Ave. HCV RNA ΔCt” value with HCV replicon (Table 24, average of n) is 1.88; in the series on HCV replicon (Table 25, average of N) it was 1.88. Moreover, the “average ΔΔCt” value in the series on HCV replicon (Table 25) came to 1.65. The “Ave. rDNA ΔCt” value in the series on rDNA (host DNA) came to 0.31. Further, in series [1], the “Ave. rRNA ΔCt” value turned out to be 0.65.
With `O=c1[nH]c(=O)n([C@@H]2O[C@H](CO)[C@@H](O)[C@H]2O)cc1F` [β-D-CC], the “Ave. ΔΔCt” value with HCV replicon (Table 24) came to 0.21. Further, the “Ave. HCV RNA ΔCt” value stood at 5.04 in the series on HCV replicon (Table 24, average of n) and 5.84 in the series with HCV replicon (Table 25, average of N). In the series with HCV replicon (Table 25), the “average ΔΔCt” value is reported as 3.66. The “Ave. rDNA ΔCt” value with rDNA (host DNA) was 2.17. The “Ave. rRNA ΔCt” value in series [1] is listed as 4.82.
For `Nc1ncnc2c1ncn2[C@@H]1O[C@H](CO)[C@@H](F)[C@H]1O` [β-D-DD], the “Ave. ΔΔCt” value with HCV replicon (Table 24) was determined as 1.61. For the same compound, the “Ave. HCV RNA ΔCt” value with HCV replicon (Table 24, average of n) is given as 6.60; in the series on HCV replicon (Table 25, average of N), 6.60. Besides, in the series with HCV replicon (Table 25), the “average ΔΔCt” value is reported as 3.30. The “Ave. rDNA ΔCt” value in the series on rDNA (host DNA) is on record as 3.30. For the same compound, the “Ave. rRNA ΔCt” value in series [1] amounted to 4.99.
With `OC[C@@H]1C[C@H](F)[C@H](n2cnc3c(Cl)ncnc32)O1` [β-D-DH], in the series with HCV replicon (Table 24), the “Ave. ΔΔCt” value was 1.21. In addition, the “Ave. HCV RNA ΔCt” value with HCV replicon (Table 24, average of n) was found to be 4.13; in the series on HCV replicon (Table 25, average of N), 4.14. For the same compound, in the series on HCV replicon (Table 25), the “average ΔΔCt” value is recorded as 3.25. Also, the “Ave. rDNA ΔCt” value in the series with rDNA (host DNA) was 0.89. Moreover, the “Ave. rRNA ΔCt” value in series [1] came out at 2.91.
For the compound `O=C(Nc1nc(=O)n([C@H]2C=C[C@@H](CO)O2)cc1F)c1ccccc1[N+](=O)[O-]` [β-D-EB], in the series on HCV replicon (Table 24), the “Ave. ΔΔCt” value was determined as 1.90. For the same compound, the “Ave. HCV RNA ΔCt” value was 3.33 with HCV replicon (Table 24, average of n) and 3.33 in the series on HCV replicon (Table 25, average of N). Further, the “average ΔΔCt” value with HCV replicon (Table 25) worked out at 2.37. Besides, in the series on rDNA (host DNA), the “Ave. rDNA ΔCt” value is 0.96. Also, the “Ave. rRNA ΔCt” value in series [1] is given as 1.42.
Regarding `OC[C@@H]1C=C(F)[C@H](n2cnc3c(Cl)ncnc32)O1` [β-D-FA], in the series with HCV replicon (Table 24), the “Ave. ΔΔCt” value amounted to 1.44. Besides, the “Ave. HCV RNA ΔCt” value is reported as 3.80 in the series with HCV replicon (Table 24, average of n) and 3.80 with HCV replicon (Table 25, average of N). In the series on HCV replicon (Table 25), the “average ΔΔCt” value worked out at 0.78. In the series with rDNA (host DNA), the “Ave. rDNA ΔCt” value is reported as 1.92. Besides, the “Ave. rRNA ΔCt” value in series [1] came to 3.58.
Turning to `Nc1ccn([C@@H]2C=C(CO)[C@@H](O)[C@H]2O)c(=O)n1` [β-D-HA], the “Ave. ΔΔCt” value in the series with HCV replicon (Table 24) was found to be 1.68. Also, the “Ave. HCV RNA ΔCt” value in the series with HCV replicon (Table 24, average of n) came out at 5.52; in the series with HCV replicon (Table 25, average of N), 5.12. Further, the “average ΔΔCt” value in the series on HCV replicon (Table 25) stood at 3.16. The “Ave. rDNA ΔCt” value with rDNA (host DNA) is listed as 2.04. The “Ave. rRNA ΔCt” value in series [1] is listed as 3.85.
Consider `CC1(CO)CO[C@@H](n2cnc3c(N)nc(F)nc32)C1` (stereo partly drawn) [β-D-VA], for which the “Ave. ΔΔCt” value with HCV replicon (Table 24) is 1.39. In addition, the “Ave. HCV RNA ΔCt” value in the series with HCV replicon (Table 24, average of n) was 5.56. The “Ave. rRNA ΔCt” value in series [1] is 4.17.
